Source: ChEMBL document CHEMBL1671651, “Azithromycin in Pseudomonas aeruginosa biofilms: bactericidal activity and selection of nfxB mutants” (2009)
Values after ≈ are worked out from the molar mass of the structure shown. Active and inactive are the calls of the source. The rule behind the calls is not given here.

Assays:
Pseudomonas aeruginosa [1] = test: Antimicrobial activity against Pseudomonas aeruginosa PAO1 planktonic cells by microdilution method; format: functional
Pseudomonas aeruginosa [2] = test: Antimicrobial activity against mucA::lox-deficient Pseudomonas aeruginosa PAOMA planktonic cells by microdilution method; format: functional
Pseudomonas aeruginosa [3] = test: Antimicrobial activity against mutS::lox-deficient Pseudomonas aeruginosa PAOMS planktonic cells by microdilution method; format: functional
Pseudomonas aeruginosa [4] = test: Antimicrobial activity against mucA::lox, mutS::lox-deficient Pseudomonas aeruginosa PAOMSA planktonic cells by microdilution method; format: functional
Pseudomonas aeruginosa [5] = test: Bactericidal activity against Pseudomonas aeruginosa PAO1 biofilm assessed as reduction in bacterial load at 0.5 ug/ml for 7days measured on day 1; format: functional
Pseudomonas aeruginosa [6] = test: Bactericidal activity against Pseudomonas aeruginosa PAO1 biofilm assessed as reduction in bacterial load at 256 ug/ml for 7 days measured on day 1; format: functional
Pseudomonas aeruginosa [7] = test: Bactericidal activity against mutS::lox-deficient Pseudomonas aeruginosa PAOMS biofilm assessed as reduction in bacterial load at 0.5 ug/ml for 7 days measured on day 1; format: functional
Pseudomonas aeruginosa [8] = test: Bactericidal activity against mutS::lox-deficient Pseudomonas aeruginosa PAOMS biofilm assessed as reduction in bacterial load at 256 ug/ml for 7 days measured on day 1; format: functional
Pseudomonas aeruginosa [9] = test: Bactericidal activity against mucA::lox, mutS::lox-deficient Pseudomonas aeruginosa PAOMSA biofilm assessed as reduction in bacterial load at 256 ug/ml for 7 days measured on day 1; format: functional
Pseudomonas aeruginosa [10] = test: Bactericidal activity against Pseudomonas aeruginosa PAO1 biofilm assessed as reduction in bacterial load at => 4 ug/ml upto 7 days; format: functional, organism-based
Pseudomonas aeruginosa [11] = test: Bactericidal activity against mucA::lox-deficient Pseudomonas aeruginosa PAOMA biofilm assessed as reduction in bacterial load at => 4 ug/ml upto 7 days; format: functional, organism-based
Pseudomonas aeruginosa [12] = test: Bactericidal activity against mutS::lox-deficient Pseudomonas aeruginosa PAOMS biofilm assessed as increase in viable cells at 4 ug/ml for 4 days; format: functional, organism-based
Pseudomonas aeruginosa [13] = test: Bactericidal activity against mutS::lox-deficient Pseudomonas aeruginosa PAOMS biofilm assessed as increase in viable cells at 4 ug/ml for 7 days; format: functional, organism-based
Pseudomonas aeruginosa [14] = test: Bactericidal activity against mucA::lox, mutS::lox-deficient Pseudomonas aeruginosa PAOMSA biofilm assessed as increase in viable cells at 4 ug/ml for 4 days; format: functional, organism-based
Pseudomonas aeruginosa [15] = test: Bactericidal activity against mucA::lox, mutS::lox-deficient Pseudomonas aeruginosa PAOMSA biofilm assessed as increase in viable cells at 4 ug/ml for 7 days; format: functional, organism-based
Pseudomonas aeruginosa [16] = test: Bactericidal activity against mutS::lox-deficient Pseudomonas aeruginosa PAOMS biofilm assessed as increase in viable cells at day 7 relative to wild-type; format: functional
Pseudomonas aeruginosa [17] = test: Bactericidal activity against mucA::lox, mutS::lox-deficient Pseudomonas aeruginosa PAOMSA biofilm assessed as increase in viable cells relative to […]; format: functional
Pseudomonas aeruginosa [18] = test: Bactericidal activity against mucA::lox, mutS::lox-deficient Pseudomonas aeruginosa PAOMSA biofilm assessed as increase in viable cells at 16 ug/ml; format: functional, organism-based
Pseudomonas aeruginosa [19] = test: Antimicrobial activity against nfxB gene-deficient Pseudomonas aeruginosa PAONB assessed as increase in viable cells at 0.5 to 4 ug/ml after 24 hrs relative to wild-type; format: functional
Pseudomonas aeruginosa [20] = test: Antimicrobial activity against mexD gene-deficient Pseudomonas aeruginosa […] assessed as increase in viable cells at 0.5 to 4 ug/ml after 24 hrs relative to wild-type; format: functional

CC[C@H]1OC(=O)[C@H](C)[C@@H](O[C@H]2C[C@@](C)(OC)[C@@H](O)[C@H](C)O2)[C@H](C)[C@@H](O[C@@H]2O[C@H](C)C[C@H](N(C)C)[C@H]2O)[C@](C)(O)C[C@@H](C)CN(C)[C@H](C)[C@@H](O)[C@]1(C)O [AZITHROMYCIN]
MIC (Pseudomonas aeruginosa [1]): 128 µg/mL (≈ 171 µM) | MIC (Pseudomonas aeruginosa [2]): 128 µg/mL (≈ 171 µM) | MIC (Pseudomonas aeruginosa [3]): 128 µg/mL (≈ 171 µM) | MIC (Pseudomonas aeruginosa [4]): 128 µg/mL (≈ 171 µM) | log10cfu (Pseudomonas aeruginosa [5]): 2 | log10cfu (Pseudomonas aeruginosa [6]): 4 | log10cfu (Pseudomonas aeruginosa [7]): 2 | log10cfu (Pseudomonas aeruginosa [8]): 4 | log10cfu (Pseudomonas aeruginosa [9]): 2 | Activity (Pseudomonas aeruginosa [10]): Active | Activity (Pseudomonas aeruginosa [11]): Active | Activity (Pseudomonas aeruginosa [12]): inactive | Activity (Pseudomonas aeruginosa [13]): inactive | Activity (Pseudomonas aeruginosa [14]): inactive | Activity (Pseudomonas aeruginosa [15]): inactive | fold change (FC) (Pseudomonas aeruginosa [16]): 50 | fold change (FC) (Pseudomonas aeruginosa [17]): 5000 | Activity (Pseudomonas aeruginosa [18]): inactive | fold change (FC) (Pseudomonas aeruginosa [19]): 1 | fold change (FC) (Pseudomonas aeruginosa [20]): 1
